From BindingDB's records for doi:10.1021/jm00055a010 (Salk Institute, 1993)

Target: T1, Neuropeptide Y receptor type 1 (Homo sapiens, UniProt P25929)
T1 sequence (P25929 whole entry): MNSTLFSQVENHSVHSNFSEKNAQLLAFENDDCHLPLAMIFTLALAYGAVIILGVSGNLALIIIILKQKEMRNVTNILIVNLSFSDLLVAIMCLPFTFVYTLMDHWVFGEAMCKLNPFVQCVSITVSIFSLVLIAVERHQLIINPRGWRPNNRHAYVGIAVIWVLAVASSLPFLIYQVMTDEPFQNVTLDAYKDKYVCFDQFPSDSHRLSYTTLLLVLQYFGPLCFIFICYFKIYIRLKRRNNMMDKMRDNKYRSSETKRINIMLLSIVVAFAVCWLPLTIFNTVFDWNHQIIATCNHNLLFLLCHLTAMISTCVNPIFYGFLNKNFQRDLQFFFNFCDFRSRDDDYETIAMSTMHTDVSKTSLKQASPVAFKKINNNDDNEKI
Test: Tested against neuropeptide Y1 receptors using SK-N-MC human neuroblastoma cells

For `CC[C@H](C)[C@H](NC(=O)[C@H](CC(C)C)NC(=O)[C@H](CC(N)=O)NC(=O)[C@@H](NC(=O)[C@H]1CNC(=O)CC[C@H](NC(=O)[C@@H](N)Cc2ccc(O)cc2)C(=O)N[C@@H](CO)C(=O)N[C@@H](CCCCN)C(=O)N2CCC[C@H]2C(=O)NCC(=O)N[C@@H](CCCN=C(N)N)C(=O)N[C@@H](Cc2c[nH]cn2)C(=O)N1)[C@@H](C)CC)C(=O)N[C@H](C(=O)N[C@@H](CCCN=C(N)N)C(=O)N[C@@H](CCC(N)=O)C(=O)N[C@@H](CCCN=C(N)N)C(=O)N[C@@H](Cc1ccc(O)cc1)C(N)=O)[C@@H](C)O`, the Ki was > 1000 nM.
